Assay [1] deals with cumulus-ovum complexes (cumulus expansion). The assay can be described thus: Cumulus expansion test in vitro. It counts as cell-based, mice. Conditions: competing with natural EP2 receptor agonist PGE2. The method, then: In immature female mice (strain: CD1 (ICR) von Charles River), folliculogenesis is induced at an age of 14-18 days by a single administration (intraperitoneal) of 10 I.U. of PMSG (Pregnant Mare Serum Gonadotropin; Sigma G-4877, Lot 68H0909). 47-50 hours after the injection, the ovaries are removed and the cumulus-ovum complexes removed. At this stage, the cumulus complex is not yet expanded.
The cumulus-ovum complexes are now incubated for 20-24 hours with prostaglandin E2 (PGE2) (1 μM), vehicle control (ethanol) or test substances. Medium: alpha-MEM medium with 0.1 mM IBMX, pyruvate (0.23 mM) glutamine (2 mM), pen/strep 100 IU/ml pen. and 100 μg/ml strep.) and HSA (8 mg/ml)). The cumulus expansion is then assessed by classification into four stages (after Vanderhyden et al. Dev Biol. 1990 August; 140(2):307-317).

Assay [2] has as its target T1, EP2 subtype of the human PGE2 receptor (Homo sapiens, UniProt P43116).
T1 construct: host or cells: cells in a cell culture plate
The assay can be described thus: cAMP antagonism test (test for antagonism in the presence of PGE2). It counts as cell-based. Conditions: in presence of agonist PGE2. An excerpt: (§1) The binding of PGE2 to the EP2 subtype of the human PGE2 receptor induces the activation of membrane adenylate cyclases and leads to the formation of cAMP. In the presence of the phosphodiesterase inhibitor IBMX, the cAMP accumulated through this stimulation and released by cell lysis is used in a competitive detection process. In this test, the cAMP in the lysate competes with cAMP-XL665 for the binding of an Eu cryptate-labeled anti-cAMP antibody. Here in the absence of cellular cAMP a maximal signal is produced, which is due to the coupling of this antibody to the cAMP-XL665 molecule. As a result, after excitation at 337 nm, a long-lasting emission signal at 665 nm (and at 620 nm) based on FRET (fluorescence resonance energy transfer) is produced. Both signals are measured in a suitable measuring instrument with time delay, i.e. after the background fluorescence has died away.
The substance solutions (0.75 μl) which contain 30% DMSO are placed in a test plate and are dissolved in 16 μl of a KRSB+IBMX stimulation solution (1× cancer Ringer bicarbonate buffer; Sigma-Aldrich # K-4002; including 750 μM 3-isobutyl-1-methylxanthine Sigma-Aldrich # 1-7018), then 15 μl of this are transferred into a media-free cell culture plate which has been washed with KRSB shortly beforehand.
After a 30-minute preincubation at room temperature (RT), 5 μl of a 4×PGE2 solution (11 nM) are added and incubated in the presence of the agonist for a further 60 mins at RT (volume: ˜20 μl), before the reaction is then stopped by addition of 5 μl of lysis buffer and the mixture is incubated for a further 20 mins at RT (volume: ˜25 μl). The cell lysate is then transferred onto an assay plate and assayed in accordance with the manufacturer's instructions (cyclic AMP kit Cisbio International # 62AMPPEC).

In assay [3] the target is T1, EP2 subtype of the human PGE2 receptor. The assay can be described thus: cellular agonism test (cAMP). It counts as cell-based.
Excerpt: as §1
The substance solutions (0.75 μl) placed in a test plate and 30% DMSO are dissolved in 16 μl of a KRSB+IBMX stimulation solution (1× cancer Ringer bicarbonate buffer; Sigma-Aldrich # K-4002; including 750 μM 3-isobutyl-1-methylxanthine Sigma-Aldrich # 1-7018), then 15 μl of this are transferred into a media-free cell culture plate which has been washed with KRSB shortly beforehand. […]

T1 sequence (P43116 whole entry): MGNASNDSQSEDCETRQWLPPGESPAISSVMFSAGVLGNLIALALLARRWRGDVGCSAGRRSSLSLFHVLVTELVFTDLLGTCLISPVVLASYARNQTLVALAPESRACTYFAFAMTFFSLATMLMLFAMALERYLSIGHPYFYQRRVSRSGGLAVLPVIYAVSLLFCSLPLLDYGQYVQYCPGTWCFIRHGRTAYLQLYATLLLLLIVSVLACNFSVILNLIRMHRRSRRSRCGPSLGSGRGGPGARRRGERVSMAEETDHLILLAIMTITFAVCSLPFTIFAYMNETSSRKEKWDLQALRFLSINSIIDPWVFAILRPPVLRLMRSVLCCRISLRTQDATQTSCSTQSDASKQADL

For the molecule `CC(C)Oc1ccc2c(=O)c3cc(C(=O)O)ccc3oc2c1` [AH 6809, reference compound], in assay [1] (at a concentration of 100-200 μM), the “suppression of the expansion of the cumulus” value is recorded as “ca. 30%”.

For orientation: IC50 means the midpoint of a concentration-inhibition curve. As for `CSc1ccc(NC(=S)NC2CCN(c3ccnc4cc(Cl)ccc34)CC2)cc1` [Example 1, 1-[1-(7-chloro-quinolin-4-yl)-piperidin-4-yl]-3-(4-methylsulfanyl-phenyl)-thiourea], in assay [2], the IC50 came to 2.7 µM. For `S=C(Nc1ccccc1Br)NC1CCN(c2ccnc3cc(Cl)ccc23)CC1` [Example 8, 1-(2-bromo-phenyl)-3-(1-(7-chloro-quinolin-4-yl)-piperidin-4-yl)-thiourea], in assay [2], the 50% inhibitory concentration (IC50) was 3.8 µM. In assay [3], the “activity in the cellular agonism test” value is “no inhibition”. Moreover, the “suppression of cumulus expansion” value in assay [1] (at a 10 times lower concentration than AH 6809 (100-200 μM)) stood at 20%. `CSc1ccccc1NC(=S)NC1CCN(c2ccnc3cc(Cl)ccc23)CC1` [Example 14, 1-(1-(7-chloro-quinolin-4-yl)-piperidin-4-yl)-3-(2-methylsulfanyl-phenyl)-thiourea]: the IC50 in assay [2] was found to be 3.4 µM.

For the origin of these results see patent US20080125435A1, “1-(Het)aryl-3-[hetaryl-piperidin-4-yl]-thioureas as modulators of the EP2 receptor” (priority 2006, published 2008).
